Source: article PMC8165606, “Effects of Natural Monoamine Oxidase Inhibitors on Anxiety-Like Behavior in Zebrafish” (Frontiers in Pharmacology, 2021)
Counter-ions that a name gives are not always drawn. Like-named read-outs stand apart in the source and are kept apart here.

What was measured:
zebrafish = settings: for NTT time spent at the top and bottom: 20 min treatment, 5 min test
Experimental: Adult male and female wild-type zebrafish were treated with the compounds for 20 min in a final volume of 50 ml in a 250-ml treatment beaker, one fish at a time. […] If not, the concentration was reduced until no obvious signs of tolerability problems (e.g., seizure-like tail or body movement) were observed.
Following compound treatment in a 250 ml beaker, the fish were briefly rinsed in fresh system water, and then immediately transferred to a trapezoidal tank (14.6 cm height x 5.5 cm width x 27.9 cm top length and x 23.6 cm bottom length) filled with 1.5 L system water (Figure 1B). The behavior of the fish was monitored for the next 5 min by using the Noldus EthoVision XT system (Wageningen, Netherlands), with the camera placed approximately 1 m from the test tank (Figure 1C). The water-filled part of the tank (11.5 cm height) was virtually divided into top, center, and bottom (Figure 1B). The average time spent at the top and bottom portions of the tank was analyzed to determine the anxiety-like behavior of fish. […] The experimenters were blind to the test conditions. A minimum of 12 fish (6 females and 6 males) per condition were used for the study.
The behavioral findings were analyzed in 1 min bins using two-way repeated measures ANOVA with Dunnett post hoc analysis. The analyses were conducted by using GraphPad Prism v8.2.1 (GraphPad Software, San Diego, CA, United States).

MAO A = biological target: T1, MAO A (Homo sapiens, UniProt P21397); assay: MAO-Glo two-step bioluminescent assay, MAO A; format: biochemical; settings: for Selectivity between MAO A and B: present study
T1 sequence (P21397 1-527): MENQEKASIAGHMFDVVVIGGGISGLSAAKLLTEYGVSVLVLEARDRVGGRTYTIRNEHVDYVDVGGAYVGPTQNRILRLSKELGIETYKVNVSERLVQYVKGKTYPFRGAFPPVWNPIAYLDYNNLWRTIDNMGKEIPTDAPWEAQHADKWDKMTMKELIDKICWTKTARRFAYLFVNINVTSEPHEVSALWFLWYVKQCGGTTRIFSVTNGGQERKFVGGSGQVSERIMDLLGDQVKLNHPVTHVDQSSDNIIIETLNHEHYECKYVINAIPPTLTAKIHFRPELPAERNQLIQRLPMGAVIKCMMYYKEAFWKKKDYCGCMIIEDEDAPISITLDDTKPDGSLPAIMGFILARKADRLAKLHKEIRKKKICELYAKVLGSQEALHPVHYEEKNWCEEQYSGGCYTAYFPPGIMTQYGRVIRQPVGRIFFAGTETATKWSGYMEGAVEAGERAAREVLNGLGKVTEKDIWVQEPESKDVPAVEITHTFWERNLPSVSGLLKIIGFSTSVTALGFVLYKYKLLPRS
Source text: (§1) Fluostar Omega 96 Microplate reader (BMG LABTECH GmbH, Ortenberg, Germany) was used to measure the luminescent signal and to determine the IC50 (half maximal inhibitory concentration).

MAO B = biological target: T2, MAO B (Homo sapiens, UniProt P27338); assay: MAO-Glo two-step bioluminescent assay, MAO B; format: biochemical; settings: mean ± SEM; substrate 3 µM
T2 sequence (P27338 1-520): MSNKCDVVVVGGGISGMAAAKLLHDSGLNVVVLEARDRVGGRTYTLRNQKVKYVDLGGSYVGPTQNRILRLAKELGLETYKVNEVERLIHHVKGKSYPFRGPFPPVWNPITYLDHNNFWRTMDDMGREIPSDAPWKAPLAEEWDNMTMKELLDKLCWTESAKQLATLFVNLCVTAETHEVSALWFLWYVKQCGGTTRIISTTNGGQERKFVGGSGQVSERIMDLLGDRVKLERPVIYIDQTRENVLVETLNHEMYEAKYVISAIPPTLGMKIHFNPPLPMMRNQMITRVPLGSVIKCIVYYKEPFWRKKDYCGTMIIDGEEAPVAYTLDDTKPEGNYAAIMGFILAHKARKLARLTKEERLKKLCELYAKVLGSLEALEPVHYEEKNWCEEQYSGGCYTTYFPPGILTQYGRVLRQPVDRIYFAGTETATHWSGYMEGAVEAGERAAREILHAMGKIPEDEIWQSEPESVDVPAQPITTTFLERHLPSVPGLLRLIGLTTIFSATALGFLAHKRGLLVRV
Source text: as §1

serotonin receptor = assay: Pilot in vitro serotonin receptor binding (data not shown); settings: pilot study in vitro
[1] = system: norepinephrine transporter; assay: Pilot in vitro norepinephrine transporter binding (data not shown); settings: pilot study in vitro
zebrafish brain = assay: Ex vivo bioavailability assay in fish brain (UPLC-HRMS or GC/MS); settings: relative brain level per 1 mg/L
Experimental: The fish were decapitated at the level of the gills by using a surgical knife. The head was turned dorsal side down, and, soft tissue was removed from the ventral side of the skull using two forceps until the base of the skull was exposed. The skull was broken open, and the bone from the ventral side of the brain was removed. The brain was then placed in a microcentrifuge tube, weighed, snap-frozen in liquid nitrogen, and stored at −80°C until the analysis.
Briefly, on the day of analysis, the brain samples were defrosted, resuspended in a methanol solution (2:1 [v/v] methanol:MilliQ water), and homogenized with vigorous agitation and ultrasonication (5 min each). The homogenate was centrifuged at 15,000 x rpm for 10 min, and the supernatant was analyzed by using a UPLC-Q Exactive Orbitrap-HRMS system (Thermo Fisher Scientific™, Bremen, Germany) for all compounds except for TMN, which was analyzed by gas chromatography/mass spectrometry (GC/MS) system. Chromatographic separation was achieved on a Synergi™ 4-µm Hydro-RP 80 Å, L.C. […]
For TMN, the Agilent GC/MS system (Agilent, Santa Clara, CA, United States) was used, because it is an apolar aromatic compound that could not be ionized for the detection by the UPLC-Q Exactive Orbitrap-HRMS system. […] The results were quantified using Agilent MS Workstation software (v6.9.3).

MAO-A and MAO-B [2] = system: MAO-A and MAO-B; parameters: method as in Fisar et al., 2010; settings: crude pig brain mitochondrial fractions ref Fisar et al., 2010; cited from earlier work
MAO-A and MAO-B [3] = settings: cited from earlier work
[4] = two highest concentrations tested
[5] = all concentrations tested, throughout the test period

With `C#CCN(C)CCCOc1ccc(Cl)cc1Cl` [Clorgyline, clorgyline hydrochloride, reference compound] as the molecule, how does the “NTT time spent at the top and bottom” value (zebrafish; 10 mg/L) read?
Its value is “no effect”.

What about the “NTT time spent at the top and bottom” value (zebrafish; 30 mg/L) of the same molecule?
Its value is “significantly increasing it only during the last 2 min”.

What about the “NTT time spent at the top and bottom” value (zebrafish; 100 mg/L) of the same molecule?
The value was “increasing the time spent at the top for almost the entire test period”.

And the “NTT total distance traveled” value (zebrafish; [4])?
The value was “significantly reduced”.

What about the Tolerability in zebrafish (zebrafish; zebrafish, in vivo) of the same molecule?
Its Tolerability in zebrafish is “borderline of tolerability”.

Which IC50 (MAO A) does the source give for `Cc1nccc2c1[nH]c1ccccc12` [Harmane] here?
The IC50 was 0.05 ± 0.03 µM.

What about the “MAO-A selectivity over MAO-B” value (MAO A; from IC50 values) of the same molecule?
The value was > 2,000 fold.

And the “Selectivity between MAO A and B” value (MAO A)?
Its value is “only MAO A selective inhibitor”.

And the IC50 (MAO B)?
The IC50 was > 100 µM.

And the “NTT time spent at the top and bottom” value (zebrafish; 1 mg/L)?
The value was “increased the time spent at the top and decreased the time spent at the bottom during the first minute”.

What about the “NTT time spent at the top and bottom” value (zebrafish; 3 mg/L) of the same molecule?
The value was “increased the time spent at the top and decreased the time spent at the bottom during the first minute”.

And the “NTT time spent at the top and bottom” value (zebrafish; 10 mg/L)?
The value was “no effect”.

What about the “NTT total distance traveled” value (zebrafish; [5]) of the same molecule?
Its value is “significantly reduced”.

And the NTT freezing time (zebrafish; highest concentration tested)?
The NTT freezing time was “increased the freezing time during the first 2 min”.

And the “Serotonin receptor binding activity” value (serotonin receptor)?
The value was ~10 µM.

What about the “Norepinephrine transporter binding activity” value [1] of the same molecule?
Its value is ~10 µM.

What about the “Brain level relative to the rest of compounds tested” value (zebrafish brain) of the same molecule?
The value was “approximately 10 fold”.

For `c1ccc2c(c1)[nH]c1cnccc12` [Norharmane, norharmane], which “NTT time spent at the top and bottom” value (zebrafish; 0.3 mg/L) is on record?
Its value is “no effect”.

What about the “NTT time spent at the top and bottom” value (zebrafish; 1 mg/L) of the same molecule?
The value was “significant effect between 2 and 3 min of the test”.

What about the “NTT time spent at the top and bottom” value (zebrafish; 3 mg/L) of the same molecule?
Its value is “increased the time spent at the top and decreased the time spent at the bottom during the last 2 min”.

And the “NTT total distance traveled” value (zebrafish; highest concentration tested)?
Its value is “significantly reduced”.

And the “Serotonin receptor binding activity” value (serotonin receptor)?
The value was ~10 µM.

What about the “Norepinephrine transporter binding activity” value [1] of the same molecule?
The value was ~10 µM.

For `C#CCN(C)Cc1ccccc1` [Pargyline, pargyline hydrochloride], which “NTT time spent at the top and bottom” value (zebrafish; 10 mg/L) is on record?
The value was “only an anxiogenic-like effect, but only for the first 1 min of the test”.

What about the “NTT total distance traveled” value (zebrafish; [4]) of the same molecule?
The value was “significantly reduced”.

And the “Difference between the Ki values of MAO-A and MAO-B” value (MAO-A and MAO-B [2])?
The value was 1.4 fold.

What about the “Difference in Ki values of MAO-A and MAO-B” value (MAO-A and MAO-B [3]; recombinant human enzymes ref Oh et al., 2020) of the same molecule?
Its value is > 100 fold.

And the “Difference in Ki values of MAO-A and MAO-B” value (MAO-A and MAO-B [3]; recombinant human enzymes ref Takao et al., 2019)?
Its value is 21 fold.

For `c1ccc2c(c1)CCNC2` [TIQ, 1,2,3,4-tetrahydroisoquinoline], which “NTT time spent at the top and bottom” value (zebrafish; 10 mg/L) is on record?
The value was “no effect”.

What about the “NTT time spent at the top and bottom” value (zebrafish; 30 mg/L) of the same molecule?
Its value is “generally increased and decreased the time spent at the top and bottom, respectively”.

And the “NTT time spent at the top and bottom” value (zebrafish; 100 mg/L)?
Its value is “generally increased and decreased the time spent at the top and bottom, respectively”.

And the “Effect on general movement in NTT” value (zebrafish; 10, 30 and 100 mg/L)?
The value was “no observable effect on general movement”.

For `CC1=C(C)C(=O)c2cc(C)ccc2C1=O` [TMN, 2,3,6-trimethyl-1,4-naphtoquinone], which IC50 (MAO A; mean ± SEM, substrate 20 µM, read-out: MAO a IC50) is on record?
Its IC50 is 1.14 ± 0.74 µM.

And the “Selectivity between MAO A and B” value (MAO A)?
The value was “no selectivity”.

What about the IC50 (MAO B) of the same molecule?
The IC50 was 7.14 ± 2.29 µM.

What about the “NTT time spent at the top and bottom” value (zebrafish; 10 mg/L) of the same molecule?
Its value is “only an anxiogenic-like effect during the last couple of minutes”.

And the “NTT time spent at the top and bottom” value (zebrafish; 30 mg/L)?
The value was “mix of both anxiolytic- and anxiogenic-like behaviors”.

What about the “NTT total distance traveled” value (zebrafish; [5]) of the same molecule?
Its value is “significantly reduced”.

What about the Tolerability in zebrafish (zebrafish; highest concentrations tested, relatively high number of fish with long freezing) of the same molecule?
The Tolerability in zebrafish was “borderline of tolerability”.

And the NTT freezing time (zebrafish; [4])?
Its NTT freezing time is “increased the freezing time”.

For `O=C1CC2(CCCC2)CC(=O)N1CCCCN1CCN(c2ncccn2)CC1` [buspirone, Buspirone hydrochloride, reference compound], which “NTT time spent at the top and bottom, treatment effect” value (zebrafish; 10, 30 and 100 mg/L, two-way ANOVA) is on record?
Its value is “significant treatment effect”.

And the Tolerability in zebrafish (zebrafish; zebrafish, in vivo)?
Its Tolerability in zebrafish is “borderline of tolerability”.
